According to PubChem BioAssay (NCI):
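Here, GI50 denotes the concentration required for 50% inhibition of growth. TGI marks complete inhibition of growth.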

Key:
Assay in all cases: DTP human tumour cell line panel, 384-well format
T-47D breast = tested on: T-47D breast
SR leukemia = tested on: SR leukemia
U251 glioblastoma = tested on: U251 glioblastoma
MDA-MB-435 melanoma = tested on: MDA-MB-435 melanoma
A498 renal = tested on: A498 renal
HOP-92 NSCLC = tested on: HOP-92 NSCLC
SNB-75 CNS = tested on: SNB-75 CNS
NCI-H460 NSCLC = tested on: NCI-H460 NSCLC
KM12 colon = tested on: KM12 colon
SF-268 CNS = tested on: SF-268 CNS
OVCAR-3 ovarian = tested on: OVCAR-3 ovarian
CAKI-1 renal = tested on: CAKI-1 renal
HOP-62 NSCLC = tested on: HOP-62 NSCLC
K-562 leukemia = tested on: K-562 leukemia
SK-MEL-5 melanoma = tested on: SK-MEL-5 melanoma
SK-OV-3 ovarian = tested on: SK-OV-3 ovarian
MDA-MB-231 breast = tested on: MDA-MB-231 breast
SF-539 CNS = tested on: SF-539 CNS
SK-MEL-28 melanoma = tested on: SK-MEL-28 melanoma
UACC-257 melanoma = tested on: UACC-257 melanoma
A549 NSCLC = tested on: A549 NSCLC
NCI-H226 lung = tested on: NCI-H226 lung
EKVX NSCLC = tested on: EKVX NSCLC
NCI-H322M lung = tested on: NCI-H322M lung
MOLT-4 leukemia = tested on: MOLT-4 leukemia
NCI/ADR-RES ovarian = tested on: NCI/ADR-RES ovarian
HS 578T breast = tested on: HS 578T breast
OVCAR-4 ovarian = tested on: OVCAR-4 ovarian
SN12C renal = tested on: SN12C renal
HL-60(TB) leukemia = tested on: HL-60(TB) leukemia
ACHN renal = tested on: ACHN renal
UO-31 renal = tested on: UO-31 renal
SF-295 CNS = tested on: SF-295 CNS
IGROV1 ovarian = tested on: IGROV1 ovarian
DU-145 prostate = tested on: DU-145 prostate
HCT-116 colon = tested on: HCT-116 colon
RXF 393 renal = tested on: RXF 393 renal
COLO 205 colon = tested on: COLO 205 colon
BT-549 breast = tested on: BT-549 breast
HT29 colon = tested on: HT29 colon
MALME-3M melanoma = tested on: MALME-3M melanoma
HCT-15 colon = tested on: HCT-15 colon
LOX IMVI melanoma = tested on: LOX IMVI melanoma
HCC-2998 colon = tested on: HCC-2998 colon
PC-3 prostate = tested on: PC-3 prostate
MDA-MB-468 breast = tested on: MDA-MB-468 breast
NCI-H23 lung = tested on: NCI-H23 lung
NCI-H522 lung = tested on: NCI-H522 lung
OVCAR-8 ovarian = tested on: OVCAR-8 ovarian
786-0 renal = tested on: 786-0 renal
SNB-19 CNS = tested on: SNB-19 CNS
UACC-62 melanoma = tested on: UACC-62 melanoma
TK-10 renal = tested on: TK-10 renal
MCF7 breast = tested on: MCF7 breast
RPMI-8226 leukemia = tested on: RPMI-8226 leukemia
M14 melanoma = tested on: M14 melanoma
SW-620 colon = tested on: SW-620 colon
CCRF-CEM leukemia = tested on: CCRF-CEM leukemia

CC(C)(O)CS(=O)(=O)Nc1ccc2c(c1)CCN(C(=O)COc1cccnc1)C2
GI50 (T-47D breast): < 10 nM
TGI (T-47D breast): < 10 nM
GI50 (SR leukemia): 29 nM
TGI (SR leukemia): 60.4 nM
GI50 (U251 glioblastoma): < 10 nM
TGI (U251 glioblastoma): 12.8 nM
GI50 (MDA-MB-435 melanoma): 20 nM
TGI (MDA-MB-435 melanoma): 34.6 nM
GI50 (A498 renal): 390 nM
TGI (A498 renal): 3610 nM
GI50 (HOP-92 NSCLC): 121 nM
TGI (HOP-92 NSCLC): 320 nM
GI50 (SNB-75 CNS): 17.8 nM
TGI (SNB-75 CNS): 32.6 nM
GI50 (NCI-H460 NSCLC): 239 nM
TGI (NCI-H460 NSCLC): 435 nM
GI50 (KM12 colon): 17.3 nM
TGI (KM12 colon): 43.2 nM
GI50 (SF-268 CNS): 20 nM
TGI (SF-268 CNS): 35 nM
GI50 (OVCAR-3 ovarian): < 10 nM
TGI (OVCAR-3 ovarian): 12.2 nM
GI50 (CAKI-1 renal): 20.4 nM
TGI (CAKI-1 renal): 37.9 nM
GI50 (HOP-62 NSCLC): 25 nM
TGI (HOP-62 NSCLC): 52.2 nM
GI50 (K-562 leukemia): < 10 nM
TGI (K-562 leukemia): 10.9 nM
GI50 (SK-MEL-5 melanoma): 20.8 nM
TGI (SK-MEL-5 melanoma): 40.3 nM
GI50 (SK-OV-3 ovarian): 10 nM
TGI (SK-OV-3 ovarian): 23.6 nM
GI50 (MDA-MB-231 breast): 43.5 nM
TGI (MDA-MB-231 breast): 135 nM
GI50 (SF-539 CNS): < 10 nM
TGI (SF-539 CNS): < 10 nM
GI50 (SK-MEL-28 melanoma): 22.8 nM
TGI (SK-MEL-28 melanoma): 43.4 nM
GI50 (UACC-257 melanoma): 143 nM
TGI (UACC-257 melanoma): 590 nM
GI50 (A549 NSCLC): 234 nM
TGI (A549 NSCLC): 494 nM
GI50 (NCI-H226 lung): 871 nM
TGI (NCI-H226 lung): 26000 nM
GI50 (EKVX NSCLC): 46.4 nM
TGI (EKVX NSCLC): 164 nM
GI50 (NCI-H322M lung): 10.9 nM
TGI (NCI-H322M lung): 38.9 nM
GI50 (MOLT-4 leukemia): < 10 nM
TGI (MOLT-4 leukemia): < 10 nM
GI50 (NCI/ADR-RES ovarian): 145 nM
TGI (NCI/ADR-RES ovarian): 279 nM
GI50 (HS 578T breast): 17.3 nM
TGI (HS 578T breast): 32.4 nM
GI50 (OVCAR-4 ovarian): 31.3 nM
TGI (OVCAR-4 ovarian): 78.2 nM
GI50 (SN12C renal): < 10 nM
TGI (SN12C renal): < 10 nM
GI50 (HL-60(TB) leukemia): < 10 nM
TGI (HL-60(TB) leukemia): < 10 nM
GI50 (ACHN renal): 37 nM
TGI (ACHN renal): 127 nM
GI50 (UO-31 renal): 19.5 nM
TGI (UO-31 renal): 35.7 nM
GI50 (SF-295 CNS): 29.5 nM
TGI (SF-295 CNS): 74.7 nM
GI50 (IGROV1 ovarian): 19 nM
TGI (IGROV1 ovarian): 34.2 nM
GI50 (DU-145 prostate): 22.6 nM
TGI (DU-145 prostate): 45.9 nM
GI50 (HCT-116 colon): < 10 nM
TGI (HCT-116 colon): < 10 nM
GI50 (RXF 393 renal): 18.3 nM
TGI (RXF 393 renal): 35.6 nM
GI50 (COLO 205 colon): < 10 nM
TGI (COLO 205 colon): < 10 nM
GI50 (BT-549 breast): 21.6 nM
TGI (BT-549 breast): 40.1 nM
GI50 (HT29 colon): 36 nM
TGI (HT29 colon): 102 nM
GI50 (MALME-3M melanoma): 83.5 nM
TGI (MALME-3M melanoma): 258 nM
GI50 (HCT-15 colon): 33.9 nM
TGI (HCT-15 colon): 108 nM
GI50 (LOX IMVI melanoma): 33.1 nM
TGI (LOX IMVI melanoma): 170 nM
GI50 (HCC-2998 colon): 21.7 nM
TGI (HCC-2998 colon): 42.1 nM
GI50 (PC-3 prostate): 10.8 nM
TGI (PC-3 prostate): 23.2 nM
GI50 (MDA-MB-468 breast): 21.7 nM
TGI (MDA-MB-468 breast): 39.7 nM
GI50 (NCI-H23 lung): 29.1 nM
TGI (NCI-H23 lung): 78.7 nM
GI50 (NCI-H522 lung): < 10 nM
TGI (NCI-H522 lung): < 10 nM
GI50 (OVCAR-8 ovarian): < 10 nM
TGI (OVCAR-8 ovarian): < 10 nM
GI50 ([…]-0 renal): 18.6 nM
TGI (786-0 renal): 34 nM
GI50 (SNB-19 CNS): 14.9 nM
TGI (SNB-19 CNS): 29.6 nM
GI50 (UACC-62 melanoma): 31.3 nM
TGI (UACC-62 melanoma): 74.9 nM
GI50 (TK-10 renal): 32.3 nM
TGI (TK-10 renal): 92 nM
GI50 (MCF7 breast): 23.1 nM
TGI (MCF7 breast): 48 nM
GI50 (RPMI-8226 leukemia): 43.6 nM
TGI (RPMI-8226 leukemia): 163 nM
GI50 (M14 melanoma): 19.1 nM
TGI (M14 melanoma): 33.6 nM
GI50 (SW-620 colon): < 10 nM
TGI (SW-620 colon): < 10 nM
GI50 (CCRF-CEM leukemia): < 10 nM
TGI (CCRF-CEM leukemia): < 10 nM
